Values after ≈ are worked out from the molar mass of the structure shown. Read-outs that look alike come from different tables or passages of the source. Blank lines part the entries; values can stand above or below the compound they belong to.
How the values were obtained:
Format in all cases: physicochemical
[1] = Thermodynamic equilibrium solubility in anisole
Description: (§1) Anisole was selected as solvent based on good stability and measurable solubility of bimatoprost acid polymorphs in the studied temperature range. […] Another solvent, nitromethane, was selected to detect the solubility of bimatoprost acid at 9 and 22° C. […] At 22° C., both forms converted to oils where no comparison between the two polymorphs could be made.

[2] = Solubility in nitromethane
Description: as §1

[3] = Isothermal competitive co-slurries of polymorph I and II; conditions: 1:1 ratio co-slurry at 5, 20 and 35° C.
Description: The differences in free energy between the polymorphs were measured as a function of temperature in order to determine the transition temperature and relative stability versus temperature.

[4] = Vapor sorption analysis (VSA); conditions: for relative humidity at which the monohydrate (hydrated form) forms: first adsorption
Description: The crystalline monohydrate form (designated polymorph III) was discovered upon vapor sorption analysis (VSA) of both polymorph I and polymorph II. […] The conversion of polymorph I to the monohydrate form was confirmed by XRPD. […] The 2nd adsorption cycle of polymorph II reconfirms formation of the monohydrate again at RH˜75% (FIG. 7). […] The thermal analysis (MDSC) of the monohydrate form indicates a melting endotherm onset (Tonset) at 53.9° C. and a fusion enthalpy (ΔHf) of 72.4 J/g for the monohydrate form (see FIG. 8).

physical state in solubility study ([1]; temperatures above 40° C.): transforms to an oil
Structure (SMILES): O=C(O)CCCC=CCC1C(O)CC(O)C1C=CC(O)CCc1ccccc1 (centres unmarked) [bimatoprost acid, 7-[3,5-Dihydroxy-2-(3-hydroxy-5-phenyl-pent-1-enyl)-cyclopentyl]-hept-5-enoic acid]

solubility ([2]; 9 °C, organic solvent or mixture, thermodynamic from solid, read-out: solubility): 4100 ± 300 µg/mL (≈ 10.6 mM)
relative humidity at which the monohydrate (hydrated form) forms ([4]; 25° C.): ~75 % RH
water absorbed ([4]; RH~75%, 25° C.): 4.42 w/w %
Structure (SMILES): O=C(O)CCCC=CCC1C(O)CC(O)C1C=CC(O)CCc1ccccc1 (centres unmarked) [polymorph I, 7-[3,5-Dihydroxy-2-(3-hydroxy-5-phenyl-pent-1-enyl)-cyclopentyl]-hept-5-enoic acid]
polymorph conversion / relative stability [3]: converts to polymorph II at all three temperatures

solubility ([2]; 9° C.): 3300 ± 200 µg/mL (≈ 8.49 mM)
thermodynamic equilibrium solubility (comparison of polymorphs) ([1]; 6° C. and 25° C.): lower solubility
relative humidity at which the monohydrate forms ([4]; 2nd adsorption cycle): ~75%
relative humidity at which the monohydrate (hydrated form) forms ([4]; 25° C.): above 85 % RH
Structure (SMILES): O=C(O)CCCC=CCC1C(O)CC(O)C1C=CC(O)CCc1ccccc1 (centres unmarked) [polymorph II, 7-[3,5-Dihydroxy-2-(3-hydroxy-5-phenyl-pent-1-enyl)-cyclopentyl]-hept-5-enoic acid]
polymorph conversion / relative stability [3]: more stable form over the temperature range of 5-35 °C

Structure (SMILES): O=C(O)CCCC=CCC1C(O)CC(O)C1C=CC(O)CCc1ccccc1 (centres unmarked) [polymorph III, 7-[3,5-Dihydroxy-2-(3-hydroxy-5-phenyl-pent-1-enyl)-cyclopentyl]-hept-5-enoic acid]
conversion upon drying ([4]; drying in vapor sorption analyzer at 25° C.): converted beck to the initial polymorph 1
